Test results as given in patent US4108991A, “N-aminosulfenyl derivatives of aldicarb” (priority 1976, dated 1978).

test system: rats; test: Toxicity to rats, acute oral median lethal dose (LD50), Method A; type: in vivo, young female albino rats, derived from Sprague-Dawley stock; conditions: rat, ratio to aldicarb
Method: Method A: Young female albino rats, derived from Sprague-Dawley stock and weighing between 175 and 200 g, were used. An initial screening was conducted to determine the general level of toxicity of the test compounds and to establish the dosing range to be used with each compound. The test materials were suspended in corn oil and administered directly into the stomachs of the rats, using a hypodermic syringe equipped with a ball-tipped intubating needle. A range of dosing levels was employed utilizing two rats at each level. […] This method was used to determine the toxicity to rats of the compounds of Examples I, II, and III and aldicarb.

Structure (SMILES)	Enhancement LD50 Derivative/LD50 Aldicarb
CSC(C)(C)C=NOC(=O)N(C)SN(C)Cc1ccccc1 [Example I, 2-methyl-2-(methylthio)propanol O-[(N-benzyl-N-methylaminosulfenyl)(methyl)carbamoyl]oxime]	19

test system: Two-spotted spider mite; test: Initial contact activity, leaf dip, two-spotted spider mite; type: in vivo, Tetranychus urticae Koch; conditions: Tetranychus urticae, foliar, 48 h, initial, SM, 10 PPM, 48 hours; read-out: Percent Kill
Method: (§1) Initial Contact Activity: One half gram of test compound was dissolved in 40 ml of acetone and this solution was dispersed in 360 ml of water containing one drop of isooctylphenyl polyethoxyethanol. Aliquots of this solution, which corresponds to 1250 ppm of active ingredient, were diluted with an appropriate amount of water to provide solutions containing various concentrations of active ingredient. Test organisms and techniques were as follows: The activity against the Mexican bean beetle (Epilachna varivestis Muls.) and the southern armyworm (Spodoptera eridania [Cram.]) was evaluated by dipping the leaves of pinto bean plants into the test solution and infesting the leaves with the appropriate immature-form insects when the foiliage had dried; the activity against the pea aphid (Acyrthosiphon pisum [Harris]) was evaluated on broad bean plants whose leaves were dipped before infestation with adult aphids; the activity against two-sotted spider mites (Tetranychus urticae Koch) was evaluated on pinto bean plants whose leaves were dipped after infestation with adult mites; the activity against the milkweed bug (Oncopeltus fasciatus [Dallas]), and the plum curculio (Conotrachelus nenuphar [Herbst]) was evaluated by spraying the test solutions into glass dishes or jars containing the adult insects; the activity against the confused flour beetle (Tribolium confusum duVal) was evaluated by introducing the insects into glass dishes which had been previously sprayed with test solution and allowed to dry. All organisms in the test were maintained in a holding room at 80° F and 50% relative humidity for an exposure period of 48 hours. At the end of this time, the dead and living insects or mites were counted, and the percent kill was calculated.

Structure (SMILES)	mortality at 10 ppm [%]
CSC(C)(C)C=NOC(=O)N(C)SN(C)Cc1ccccc1 [Example I, 2-methyl-2-(methylthio)propanol O-[(N-benzyl-N-methylaminosulfenyl)(methyl)carbamoyl]oxime]	96

same assay, conditions: Tetranychus urticae, foliar, 48 h, initial, SM, 39 PPM, 48 hours; read-out: Percent Kill

Structure (SMILES)	mortality at 39 ppm [%]
CSC(C)(C)C=NOC(=O)N(C)SN(C)Cc1ccccc1 [Example I, 2-methyl-2-(methylthio)propanol O-[(N-benzyl-N-methylaminosulfenyl)(methyl)carbamoyl]oxime]	98

same assay, conditions: Tetranychus urticae, foliar, 48 h, initial, SM, 156 PPM, 48 hours; read-out: Percent Kill

Structure (SMILES)	mortality at 156 ppm [%]
CSC(C)(C)C=NOC(=O)N(C)SN(C)Cc1ccccc1 [Example I, 2-methyl-2-(methylthio)propanol O-[(N-benzyl-N-methylaminosulfenyl)(methyl)carbamoyl]oxime]	100

same assay, conditions: Tetranychus urticae, foliar, 48 h, initial, SM, 1250 PPM, 48 hours; read-out: Percent Kill

Structure (SMILES)	mortality at 1250 ppm [%]
CSC(C)(C)C=NOC(=O)N(C)SN(C)Cc1ccccc1 [Example I, 2-methyl-2-(methylthio)propanol O-[(N-benzyl-N-methylaminosulfenyl)(methyl)carbamoyl]oxime]	100

test system: Milkweed bug; test: Initial contact activity, spray, milkweed bug; type: in vivo, Oncopeltus fasciatus [Dallas]; conditions: Oncopeltus fasciatus, 48 h, initial, MWB, 10 PPM, 48 hours; read-out: Percent Kill
Method: as §1

Structure (SMILES)	mortality at 10 ppm [%]
CSC(C)(C)C=NOC(=O)N(C)SN(C)Cc1ccccc1 [Example I, 2-methyl-2-(methylthio)propanol O-[(N-benzyl-N-methylaminosulfenyl)(methyl)carbamoyl]oxime]	5

same assay, conditions: Oncopeltus fasciatus, 48 h, initial, MWB, 39 PPM, 48 hours; read-out: Percent Kill

Structure (SMILES)	mortality at 39 ppm [%]
CSC(C)(C)C=NOC(=O)N(C)SN(C)Cc1ccccc1 [Example I, 2-methyl-2-(methylthio)propanol O-[(N-benzyl-N-methylaminosulfenyl)(methyl)carbamoyl]oxime]	80

same assay, conditions: Oncopeltus fasciatus, 48 h, initial, MWB, 156 PPM, 48 hours; read-out: Percent Kill

Structure (SMILES)	mortality at 156 ppm [%]
CSC(C)(C)C=NOC(=O)N(C)SN(C)Cc1ccccc1 [Example I, 2-methyl-2-(methylthio)propanol O-[(N-benzyl-N-methylaminosulfenyl)(methyl)carbamoyl]oxime]	100

same assay, conditions: Oncopeltus fasciatus, 48 h, initial, MWB, 1250 PPM, 48 hours; read-out: Percent Kill

Structure (SMILES)	mortality at 1250 ppm [%]
CSC(C)(C)C=NOC(=O)N(C)SN(C)Cc1ccccc1 [Example I, 2-methyl-2-(methylthio)propanol O-[(N-benzyl-N-methylaminosulfenyl)(methyl)carbamoyl]oxime]	100

test system: Pea aphid; test: Systemic activity, soil-watering, pea aphid; type: in vivo, Acyrthosiphon pisum [Harris]; conditions: Acyrthosiphon pisum, 48 h, systemic, PA, 10 PPM; read-out: Percent Kill
Method: as §1
Systemic Activity: Systemic activity was measured using a soil-watering technique. Test organisms were Mexican bean beetle, southern armyworm, pea aphid, and mites on plants as described above in this Example. With appropriate precautions to avoid contact of the solution with the test plant surfaces, 25 ml of a test solution, prepared as above to contain the desired amount of active ingredient, were poured evenly over the surface of the soil in which the plant was growing. The treated plants were maintained under normal growing conditions for three days to permit translocation of the toxicant, after which the leaves were infested. Two days after infestation, counts of living and dead insects were made.

Structure (SMILES)	mortality at 10 ppm [%]
CSC(C)(C)C=NOC(=O)N(C)SN(C)Cc1ccccc1 [Example I, 2-methyl-2-(methylthio)propanol O-[(N-benzyl-N-methylaminosulfenyl)(methyl)carbamoyl]oxime]	0

same assay, conditions: Acyrthosiphon pisum, 48 h, systemic, PA, 39 PPM; read-out: Percent Kill

Structure (SMILES)	mortality at 39 ppm [%]
CSC(C)(C)C=NOC(=O)N(C)SN(C)Cc1ccccc1 [Example I, 2-methyl-2-(methylthio)propanol O-[(N-benzyl-N-methylaminosulfenyl)(methyl)carbamoyl]oxime]	100

test system: Granary Weevil; test: Initial contact activity, granary weevil; type: in vivo; conditions: Sitophilus granarius, 48 h, initial, GW, 156 PPM, 48 hours; read-out: Percent Kill

Structure (SMILES)	mortality at 156 ppm [%]
CSC(C)(C)C=NOC(=O)N(C)SN(C)Cc1ccccc1 [Example I, 2-methyl-2-(methylthio)propanol O-[(N-benzyl-N-methylaminosulfenyl)(methyl)carbamoyl]oxime]	100

same assay, conditions: Sitophilus granarius, 48 h, initial, GW, 312 PPM, 48 hours; read-out: Percent Kill

Structure (SMILES)	mortality at 312 ppm [%]
CSC(C)(C)C=NOC(=O)N(C)SN(C)Cc1ccccc1 [Example I, 2-methyl-2-(methylthio)propanol O-[(N-benzyl-N-methylaminosulfenyl)(methyl)carbamoyl]oxime]	100

same assay, conditions: Sitophilus granarius, 48 h, initial, GW, 1250 PPM, 48 hours; read-out: Percent Kill

Structure (SMILES)	mortality at 1250 ppm [%]
CSC(C)(C)C=NOC(=O)N(C)SN(C)Cc1ccccc1 [Example I, 2-methyl-2-(methylthio)propanol O-[(N-benzyl-N-methylaminosulfenyl)(methyl)carbamoyl]oxime]	100

test system: Southern armyworm; test: Initial contact activity, leaf dip, southern armyworm; type: in vivo, Spodoptera eridania [Cram.]; conditions: Spodoptera eridania, foliar, 48 h, initial, AW, 156 PPM, 48 hours; read-out: Percent Kill
Method: as §1

Structure (SMILES)	mortality at 156 ppm [%]
CSC(C)(C)C=NOC(=O)N(C)SN(C)Cc1ccccc1 [Example I, 2-methyl-2-(methylthio)propanol O-[(N-benzyl-N-methylaminosulfenyl)(methyl)carbamoyl]oxime]	0

same assay, conditions: Spodoptera eridania, foliar, 48 h, initial, AW, 312 PPM, 48 hours; read-out: Percent Kill

Structure (SMILES)	mortality at 312 ppm [%]
CSC(C)(C)C=NOC(=O)N(C)SN(C)Cc1ccccc1 [Example I, 2-methyl-2-(methylthio)propanol O-[(N-benzyl-N-methylaminosulfenyl)(methyl)carbamoyl]oxime]	24

same assay, conditions: Spodoptera eridania, foliar, 48 h, initial, AW, 625 PPM, 48 hours; read-out: Percent Kill

Structure (SMILES)	mortality at 625 ppm [%]
CSC(C)(C)C=NOC(=O)N(C)SN(C)Cc1ccccc1 [Example I, 2-methyl-2-(methylthio)propanol O-[(N-benzyl-N-methylaminosulfenyl)(methyl)carbamoyl]oxime]	25

same assay, conditions: Spodoptera eridania, foliar, 48 h, initial, AW, 1250 PPM, 48 hours; read-out: Percent Kill

Structure (SMILES)	mortality at 1250 ppm [%]
CSC(C)(C)C=NOC(=O)N(C)SN(C)Cc1ccccc1 [Example I, 2-methyl-2-(methylthio)propanol O-[(N-benzyl-N-methylaminosulfenyl)(methyl)carbamoyl]oxime]	33

test system: Milkweed bug; test: Residual (7-day) contact activity, milkweed bug; type: in vivo, Oncopeltus fasciatus [Dallas]; conditions: Oncopeltus fasciatus, 168 h, residual 7-day, MWB, 156 PPM; read-out: Percent Kill
Method: as §1
Residual Contact Activity: The residual contact activity of the compounds was determined on the same organisms using the techniques described above, except that in each case the treated surface was allowed to dry and was exposed to normal light and air for seven days before introduction of the mites or insects.

Structure (SMILES)	mortality at 156 ppm [%]
CSC(C)(C)C=NOC(=O)N(C)SN(C)Cc1ccccc1 [Example I, 2-methyl-2-(methylthio)propanol O-[(N-benzyl-N-methylaminosulfenyl)(methyl)carbamoyl]oxime]	90

same assay, conditions: Oncopeltus fasciatus, 168 h, residual 7-day, MWB, 312 PPM; read-out: Percent Kill

Structure (SMILES)	mortality at 312 ppm [%]
CSC(C)(C)C=NOC(=O)N(C)SN(C)Cc1ccccc1 [Example I, 2-methyl-2-(methylthio)propanol O-[(N-benzyl-N-methylaminosulfenyl)(methyl)carbamoyl]oxime]	95

same assay, conditions: Oncopeltus fasciatus, 168 h, residual 7-day, MWB, 1250 PPM; read-out: Percent Kill

Structure (SMILES)	mortality at 1250 ppm [%]
CSC(C)(C)C=NOC(=O)N(C)SN(C)Cc1ccccc1 [Example I, 2-methyl-2-(methylthio)propanol O-[(N-benzyl-N-methylaminosulfenyl)(methyl)carbamoyl]oxime]	100
